Experimental data: patent US4088755A, “Medicament for remedying schizophrenia” (priority 1975, dated 1978)
Values belong to the compound of their own block, whether it stands above or below them.

Legend:
[1] = test system: patients with schizophrenia; assay: Clinical data: case reports (Cases 1 to 6) of schizophrenic patients on neuroleptics, L-Dopa and TRH; type: in vivo, human
Procedure: The following clinical data as well as Examples are only for illustrative purposes and are not at all intended to limit or to restrict the scope of the invention.
On April 14, they came back to their home town and, on the following day, was admitted to hospital.
On July 10, TRH tartrate monohydrate 4 mg. (2.73 mg. in terms of free TRH) per day (2 mg. each in the morning and night) began to be administered orally in combination with thioridazine, 50 mg. per day, and trihexyphenydyl 6 mg. per day. […] On July 31, the administration of TRH was stopped.
In February 1961, the patient was admitted for the first time to Y hospital in a state of catatonic stupor. After receiving electroshock therapy and chlorpromazine, they were discharged from the hospital on April 19 of the same year. On May 26, 1966 they were again admitted to the same hospital this time in a state of catatonic excitement. […] Beginning on April 3, 1971, thioridazine, 300 mg. per day, and L-Dopa, 400 mg. daily, were added to the therapeutic regime. […] From the 9th day on, the dosage of L-Dopa was increased to 600 mg. daily. […] At the 19th week, the dosage of L-Dopa was reduced to 400 mg. and the drug was discontinued that week-end.
Hospital therapy was started with chlorpromazine, 400 mg. per day, and spiperone, 1 mg. per day. […] Consequently, the dosage of chlorpromazine was raised to 500 mg. per day. […] Beginning on August 9, penfluridol, 20 to 40 mg. twice weekly, was added to the preceding regimen of chlorpromazine 500 mg. daily. On June 26, 1973, the dosage of chlorpromazine was reduced to 200 mg. per day. Shortly thereafter, L-Dopa, 100 mg. daily, was added to the regimen from July 5 on. The dosage of L-Dopa was then increased gradually up to 600 mg. per day and finally discontinued on August 30.
On July 2, 1974, they were started on clocapramine, 75 mg. daily, to which TRH tartrate monohydrate, 4 mg. (2.73 mg. in terms of free TRH) daily, was orally added from July 29 on.

[2] = test system: psychotic patients / patients with schizophrenia; type: in vivo, human
Text: L-Pyroglutamyl-L-histidyl-L-prolinamide (thyrotropin-releasing hormone; hereinafter referred to as TRH) is a hypothalamic hormone which can be synthesized chemically and has been used as a diagnostic agent or as an antidepressant. […] It is known, however, that, although the onset of the effect of TRH on psychotic patients is very rapid, the duration of its effects is rather short. Thus, TRH alone cannot be a practical remedy for psychotic patients.
On the other hand, according to the present invention, a deterioration of the patients considered to be caused by TRH in the combined use is negligible and, therefore, determination of the dose is very easy.
Furthermore, although the effect of TRH on pyschotic patients is known to be transient, t therapeutic effects in accordance with the present invention last long even after withdrawal of TRH or its physiologically acceptable salts, alone or together with neuroleptics, which are administered to patients in combination. In this way, long lasting therapeutic effects, as well as the rapid onset of the effects are another excellent characteristic of this invention.

[3] = test system: patients with schizophrenia; assay: Clinical data: case reports (Cases 1 to 6) of schizophrenic patients on neuroleptics, L-Dopa and TRH; type: in vivo, human; remark: listed apart in the source
[4] = test system: psychotic patients / patients with schizophrenia; settings: cited from earlier work

- Deterioration of the patients considered to be caused by TRH in the combined use ([2]; human, in vivo): negligible
Structure (SMILES): NC(=O)[C@@H]1CCCN1C(=O)[C@H](Cc1cnc[nH]1)NC(=O)[C@@H]1CCC(=O)N1 [TRH, L-Pyroglutamyl-L-histidyl-L-prolinamide]
- Time remission maintained after withdrawal of TRH, Case 2 ([1]; on clocapramine 75 mg daily alone, remission maintained most of the time): 4 months
- Persistence of remission after withdrawal of TRH, Case 1 ([3]; TRH stopped July 31, other drugs continued): His state of remission has been maintained until now
- Persistence of improvement after withdrawal of TRH, Case 5 ([3]; TRH stopped on 15th day): the improvement has continued even after withdrawal of TRH
- Clinical outcome, Case 3, TRH with thioridazine ([3]; TRH tartrate monohydrate 8 mg daily (5.46 mg free TRH) orally with thioridazine 200 mg daily for two weeks, from 4th day): Their participation in work and recreational activities became more positive and their action became more agile than when they were placed on L-Dopa
- Onset of subjective effect, Case 6 ([3]; i.v. TRH, patient felt light in the head and free from depressed feeling): One hour after the first injection
- Persistence of effect of TRH therapy after discontinuation, Case 3 ([3]; on thioridazine alone): two
- Clinical outcome, Case 6, intravenous TRH with neuroleptics ([3]; person, 730 μg TRH tartrate monohydrate (500 μg free TRH)/day i.v., 5 injections, with perphenazine 12 mg/day, diazepam 10 mg/day, vegetamim B 1 tablet/day): Remarkable improvement in the symptoms was recognized subjectively as well as objectively
- Effect of TRH alone in patients with schizophrenia ([4]; The Lancet, July 7, 1973, pages 43 and 44): produce emotional warmth, lucidity of though and accessibility of psychotherapy
- Duration of effects of TRH alone ([4]; psychotic patients): rather short
- Onset of effect of TRH alone ([4]; psychotic patients): very rapid

Structure (SMILES): CN(C)CCCN1c2ccccc2Sc2ccc(Cl)cc21 [chlorpromazine, Chlorpromazine]
- Clinical outcome, Case 2, chlorpromazine with spiperone ([1]; chlorpromazine 400 mg per day and spiperone 1 mg per day, other symptoms virtually unaffected): their negativism and psychomotor excitement seemed to disappear almost completely
- Clinical outcome, Case 4, oral chlorpromazine ([3]; person, initial 100 mg daily, gradually increasing dose): without result

Structure (SMILES): N[C@@H](Cc1ccc(O)c(O)c1)C(=O)O [L-Dopa, L-3,4-dihydroxyphenylalanine]
- Clinical outcome, Case 2, L-Dopa with thioridazine (1971) ([1]; person, L-Dopa 400-600 mg daily with thioridazine 300 to 100 mg per day, 19th week): had no morbid experience and appeared to have a clear insight
- Side-effects of L-Dopa in combined use ([2]; human, in vivo): an excessive does of L-Dopa results in the production of side-effects in the patients
- Effect of L-Dopa in small doses with conventionally used neuroleptics ([2]; schizophrenia, observed by the present inventors): marked improvement of the overall clinical picture in schizophrenia
- Clinical outcome, Case 3, L-Dopa with thioridazine ([3]; L-Dopa 300 mg daily with thioridazine 200 mg daily): their spontaneity increased to an extent greater than that achieved before
- Clinical outcome, Case 2, L-Dopa therapy (1973) ([3]; L-Dopa 100 up to 600 mg per day added to chlorpromazine 200 mg per day and penfluridol, autism and abulia persisted): His general clinical picture improved to a considerable extent
- Time condition remained the same after withdrawal of L-Dopa, Case 3 ([3]; after about 5 months of usage with thioridazine): about 4 months
- Clinical outcome, Case 3, L-Dopa with chlorpromazine ([3]; person, L-Dopa 400 mg with chlorpromazine 300 mg per day, end of 3rd week): an appreciable improvement in their facial expression
- Side effects, Case 3, L-Dopa 1000 mg daily ([3]; with chlorpromazine 300 mg per day): they seemed irritated to some extent and complained of sleeping trouble
- Side effects, Case 3, L-Dopa 1200 mg ([3]; with chlorpromazine 300 mg per day, led to discontinuation): appearance of auditory hallucination

Structure (SMILES): O=C(CCCN1CCC(O)(c2ccc(Cl)cc2)CC1)c1ccc(F)cc1 [Haloperidol]
- Clinical outcome, Case 4, haloperidol ([3]; 4 mg daily initially, increased up to 100 mg): failed to elicit any appreciable symptomatic response
